In general, Ki refers to the equilibrium dissociation constant of an inhibitor or competing ligand from its target. The low end stands for a stronger hold on the target, the high end for a looser hold on the target.

Experimental findings from US7332501B2, “Indol-3-yl-carbonyl-spiro-piperidine derivatives as V1a receptor antagonists” (Hoffmann-La Roche Inc., priority 2005, dated 2008) are described below.

Counter-ions that a name gives are not always drawn.

The assay deals with T1, human V1a receptor (Homo sapiens, UniProt P37288).
T1 construct: expressed in transfected cells; host or cells: HEK293 cells, transiently transfected; cell membranes
T1 sequence (P37288 whole entry): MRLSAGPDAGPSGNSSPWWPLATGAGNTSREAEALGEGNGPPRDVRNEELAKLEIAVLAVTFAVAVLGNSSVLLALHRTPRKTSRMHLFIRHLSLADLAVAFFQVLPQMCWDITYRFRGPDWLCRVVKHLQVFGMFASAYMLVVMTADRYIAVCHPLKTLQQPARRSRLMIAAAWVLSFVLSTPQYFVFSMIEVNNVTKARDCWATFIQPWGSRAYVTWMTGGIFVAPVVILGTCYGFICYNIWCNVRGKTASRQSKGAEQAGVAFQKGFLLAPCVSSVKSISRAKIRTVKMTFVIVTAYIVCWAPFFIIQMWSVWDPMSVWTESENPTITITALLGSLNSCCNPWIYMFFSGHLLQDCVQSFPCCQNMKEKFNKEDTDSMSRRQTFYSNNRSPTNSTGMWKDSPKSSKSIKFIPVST
The assay is described as follows: human V1a receptor binding (3H-Vasopressin SPA, HEK293 membranes). As to conditions: displacement of 4 nM 3H-Vasopressin, membranes of HEK293 cells transiently transfected with human V1a receptor; Ki from IC50 by Cheng-Prussoff. As for the experimental part:
The human V1a receptor was cloned by RT-PCR from total human liver RNA. The coding sequence was subcloned in an expression vector after sequencing to confirm the identity of the amplified sequence. […] Cell membranes were prepared from HEK293 cells transiently transfected with the expression vector and grown in 20 liter fermenters with the following protocol.
50 g cells are resuspended in 30 ml freshly prepared ice cold Lysis buffer (50 mM HEPES, 1 mM EDTA, 10 mM MgCl2 adjusted to pH=7.4+complete cocktail of protease inhibitor (Roche Diagnostics)). The cells are homogenized with Polytron for 1 min and sonicated on ice for 2×2 minutes at 80% intensity (Vibracell sonicator). The preparation is centrifuged 20 min at 500 g at 4° C., the pellet is discarded and the supernatant centrifuged 1 hour at 43,000 g at 4° C. (19,000 rpm). The pellet is resuspended in 12.5 ml Lysis buffer+12.5 ml Sucrose 20% and homogenized using a Polytron for 1-2 min. The protein concentration is determined by the Bradford method and aliquots are stored at −80° C. until use. For binding studies 60 mg Yttrium silicate SPA beads (Amersham) are mixed with an aliquot of membrane in binding buffer (50 mM Tris, 120 mM NaCl, 5 mM KCl, 2 mM CaCl2, 10 mM MgCl2) for 15 minutes with mixing. 50 ul of bead/membrane mixture is then added to each well of a 96 well plate, followed by 50 ul of 4 nM 3H-Vasopressin (American Radiolabeled Chemicals). For total binding measurement 100 ul of binding buffer are added to the respective wells, for non-specific binding 100 ul of […] cold vasopressin and for compound testing 100 ul of a serial dilution of each compound in 2% DMSO. The plate is incubated 1 h at room temperature, centrifuged 1 min at 1000 g and counted on a Packard Top-Count. Non-specific binding counts are subtracted from each well and data is normalized to the maximum specific binding set at 100%. To calculate an IC 50 the curve is fitted using a non-linear regression model (XLfit), and the Ki is calculated using the Cheng-Prussoff equation.
As for `O=C(Cn1cc(C(=O)N2CCC3(CC2)OC(=O)c2cc(F)ccc23)c2ccc(Cl)cc21)c1ccccn1` [Example 169, 1′-{[6-Chloro-1-(2-oxo-2-pyridin-2-ylethyl)-1H-indol-3-yl]carbonyl}-5-fluoro-3H-spiro[2-benzofuran-1,4′-piperidin]-3-one], the affinity, expressed as Ki, was 1.5 nM. The figure for `O=C(Cn1cc(C(=O)N2CCC3(CC2)OC(=O)c2cc(Br)ccc23)c2ccc(Cl)cc21)c1cccc(F)c1` [Example 152, 5-Bromo-1′-({6-chloro-1-[2-(3-fluorophenyl)-2-oxoethyl]-1H-indol-3-yl}carbonyl)-3H-spiro[2-benzofuran-1,4′-piperidin]-3-one] is 4.4 nM. The figure for `O=C1OC2(CCN(C(=O)c3cn(CC(=O)N4CCNCC4)c4cc(Cl)ccc34)CC2)c2ccc(F)cc21` [Example 117, 1′-{[6-Chloro-1-(2-oxo-2-piperazin-1-ylethyl)-1H-indol-3-yl]carbonyl}-5-fluoro-3H-spiro[2-benzofuran-1,4′-piperidin]-3-one] is 1.2 nM; for `NCCn1cc(C(=O)N2CCC3(CC2)OCc2ccccc23)c2ccc(Cl)cc21` [Example 253, 2-[6-Chloro-3-(1′H,3H-spiro[2-benzofuran-1,4′-piperidin]-1′-ylcarbonyl)-1H-indol-1-yl]ethanamine] it is 7.7 nM; for `O=C(c1cn(Cc2cc(F)cc(F)c2)c2cc(Cl)ccc12)N1CCC2(CC1)OCc1ccccc12` [Example 219] it is 1.2 nM. The figure for `CC(C)(C)OC(=O)N1CCOC(Cn2cc(C(=O)N3CCC4(CC3)OC(=O)c3ccccc34)c3ccc(Cl)cc32)C1` (centres unmarked) [Example 197, tert-Butyl 2-({6-chloro-3-[(3-oxo-1′H,3H-spiro[2-benzofuran-1,4′-piperidin]-1′-yl)carbonyl]-1H-indol-1-yl}methyl)morpholine-4-carboxylate] is 3 nM. `Cc1c(C(=O)N2CCC3(CC2)OC(=O)c2ccccc23)c2ccccc2n1Cc1ccccc1` [Example 126, 1′-[(1-Benzyl-2-methyl-1H-indol-3-yl)carbonyl]-3H-spiro[2-benzofuran-1,4′-piperidin]-3-one] came in with a Ki of 3 nM.

For the molecule `COc1ccc2c(c1)C1(CCN(C(=O)c3c(C)n(Cc4ccccc4)c4ccccc34)CC1)OC2=O` [Example 12, 1′-[(1-benzyl-2-methyl-1H-indol-3-yl)carbonyl]-6-methoxy-3H-spiro[2-benzofuran-1,4′-piperidin]-3-one], the affinity corresponds to a Ki of 3.4 nM. Regarding `CN1CCN(C(=O)Cn2cc(C(=O)N3CCC4(CC3)OCc3ccccc34)c3ccc(Cl)cc32)CC1` [Example 212, 1′-({6-Chloro-1-[2-(4-methylpiperazin-1-yl)-2-oxoethyl]-1H-indol-3-yl}carbonyl)-3H-spiro[2-benzofuran-1,4′-piperidine]], the affinity, expressed as Ki, was 1.2 nM. Against the preceding molecule, the Ki is about 2.8-fold lower. In the case of `O=C1OC2(CCN(C(=O)c3cn(C(=O)c4cccc(-c5ccccc5)c4)c4cc(Cl)ccc34)CC2)c2ccccc21` [Example 158, 1′-{[1-(Biphenyl-3-ylcarbonyl)-6-chloro-1H-indol-3-yl]carbonyl}-3H-spiro[2-benzofuran-1,4′-piperidin]-3-one], the Ki came out at 38.7 nM.

`CN(C)CCn1cc(C(=O)N2CCC3(CC2)OCc2ccccc23)c2ccccc21` [Example 71, N,N-dimethyl-2-[3-(1′H,3H-spiro[2-benzofuran-1,4′-piperidin]-1′-ylcarbonyl)-1H-indol-1-yl]ethanamine] returned a Ki of 5.6 nM. The figure for `CN1CCC[C@H]1Cn1cc(C(=O)N2CCC3(CC2)OCc2ccccc23)c2ccc(Cl)cc21` [Example 268] is 0.07 nM; for `O=C1OC2(CCN(C(=O)c3cn(Cc4cc(F)cc(F)c4)c4cc(Cl)ccc34)CC2)c2ccc(Br)cc21` [Example 150, 5-Bromo-1′-{[6-chloro-1-(3,5-difluorobenzyl)-1H-indol-3-yl]carbonyl}-3H-spiro[2-benzofuran-1,4′-piperidin]-3-one] it is 3.8 nM. The value for `N#CCC1(Cn2cc(C(=O)N3CCC4(CC3)OCc3ccccc34)c3ccc(Cl)cc32)CC1` [Example 245, (1-{[6-Chloro-3-(1′H,3H-spiro[2-benzofuran-1,4′-piperidin]-1′-ylcarbonyl) -1H-indol-1-yl]methyl}cyclopropyl)acetonitrile] was 1.7 nM; that for `COC(=O)c1ccc(Cn2c(C)c(C(=O)N3CCC4(CC3)OCc3ccccc34)c3ccccc32)cc1` [Example 50, methyl 4-{[2-methyl-3-(1′H,3H-spiro[2-benzofuran-1,4′-piperidin]-1′-ylcarbonyl)-1H-indol-1-yl]methyl}benzoate] was 10.6 nM.

In the case of `O=C1OC2(CCN(C(=O)c3cn(Cc4cc(F)cc(F)c4)c4ccccc34)CC2)c2ccccc21` [Example 202, 1′-{[1-(3,5-Difluorobenzyl)-1H-indol-3-yl]carbonyl}-3H-spiro[2-benzofuran-1,4′-piperidin]-3-one], the affinity, expressed as Ki, was 4.3 nM.

`O=C(Cn1cc(C(=O)N2CCC3(CC2)OCc2ccccc23)c2ccc(Cl)cc21)N1CCOCC1` [Example 205, 1′-{[6-Chloro-1-(2-morpholin-4-yl-2-oxoethyl)-1H-indol-3-yl]carbonyl}-3H-spiro[2-benzofuran-1,4′-piperidine]] registered a Ki of 1 nM. The figure for `O=C1OC2(CCN(C(=O)c3cn(CC4CNCCO4)c4cc(Cl)ccc34)CC2)c2ccc(F)cc21` (centres unmarked) [Example 200, 1′-{[6-Chloro-1-(morpholin-2-ylmethyl)-1H-indol-3-yl]carbonyl}-5-fluoro-3H-spiro[2-benzofuran-1,4′-piperidin]-3-one dihydrochloride] is 5.8 nM. The value for `CS(=O)(=O)NCCn1cc(C(=O)N2CCC3(CC2)OCc2ccccc23)c2ccc(Cl)cc21` [Example 271, N-{2-[6-Chloro-3-(1′H,3H-spiro[2-benzofuran-1,4′-piperidin]-1′-ylcarbonyl)-1H-indol-1-yl]ethyl}methanesulfonamide] was 1.5 nM.

In the case of `Cc1c(C(=O)N2CCC3(CC2)OCc2ccccc23)c2ccccc2n1Cc1cc(F)cc(F)c1` [Example 52], the Ki was determined as 2.1 nM. The figure for `N#CCCn1cc(C(=O)N2CCC3(CC2)OC(=O)c2cc(F)ccc23)c2ccc(Cl)cc21` [Example 175, 3-{6-Chloro-3-[(5-fluoro-3-oxo-1′H,3H-spiro[2-benzofuran-1,4′-piperidin]-1′-yl)carbonyl]-1H-indol-1-yl}propanenitrile] is 2.5 nM; for `O=C(c1cn(CC2CCOCC2)c2cc(Cl)ccc12)N1CCC2(CC1)OCc1ccccc12` [Example 263, 1′-{[6-Chloro-1-(tetrahydro-2H-pyran-4-ylmethyl)-1H-indol-3-yl]carbonyl}-3H-spiro[2-benzofuran-1,4′-piperidine]] it is 1.7 nM; for `Cc1nc(Cn2cc(C(=O)N3CCC4(CC3)OC(=O)c3cc(F)ccc34)c3ccc(Cl)cc32)c(C2CC2)o1` [Example 182, 1′-({6-Chloro-1-[(5-cyclopropyl-2-methyl-1,3-oxazol-4-yl)methyl]-1H-indol-3-yl}carbonyl)-5-fluoro-3H-spiro[2-benzofuran-1,4′-piperidin]-3-one] it is 4 nM. The figure for `O=C(c1c[nH]c2cc(Cl)ccc12)N1CCC2(CC1)NCc1ccccc12` [Example 284, 1′-[(6-Chloro-1H-indol-3-yl)carbonyl]-2,3-dihydrospiro[isoindole-1,4′-piperidine]] is 138 nM. The value for `N#CCn1cc(C(=O)N2CCC3(CC2)OCc2ccccc23)c2ccc(Cl)cc21` [Example 76, [6-chloro-3-(1′H,3H-spiro[2-benzofuran-1,4′-piperidin]-1′-ylcarbonyl)-1H-indol-1-yl]acetonitrile] was 1.7 nM; that for `Cc1nc(Cn2cc(C(=O)N3CCC4(CC3)OC(=O)c3cc(F)ccc34)c3ccc(Cl)cc32)c(C)o1` [Example 187, 1′-({6-Chloro-1-[(2,5-dimethyl-1,3-oxazol-4-yl)methyl]-1H-indol-3-yl}carbonyl)-5-fluoro-3H-spiro[2-benzofuran-1,4′-piperidin]-3-one] was 3.6 nM; that for `O=C(c1c[nH]c2cc(Cl)ccc12)N1CCC2(C=Cc3ccccc32)CC1` [Example 5, 1′-[(6-chloro-1H-indol-3-yl)carbonyl]spiro[indene-1,4′-piperidine]] was 8.2 nM.

The molecule `O=C(c1c[nH]c2cc(Cl)c(F)cc12)N1CCC2(CC1)COc1ccccc12` [Example 80, 1′-[(6-chloro-5-fluoro-1H-indol-3-yl)carbonyl]spiro[1-benzofuran-3,4′-piperidine]] displayed an inhibitory constant (Ki) of 7.4 nM.

In turn, `Cc1c(C(=O)N2C[C@H](C)C3(OC(=O)c4ccccc43)[C@@H](C)C2)c2ccccc2n1Cc1ccccc1` (racemic) [Example 15, (SS,RR)-1′-[(1-benzyl-2-methyl-1H-indol-3-yl)carbonyl]-3′,5′-dimethyl-3H-spiro[2-benzofuran-1,4′-piperidin]-3-one] registered an inhibitory constant (Ki) of 14.8 nM. This Ki is about 2-fold higher than that of the molecule before.
